Assay results as given in patent publication US20170166555A1, “FUNCTIONALISED AND SUBSTITUTED INDOLES AS ANTI-CANCER AGENTS” (Novogen Limited, priority 2013, published 2017).
Like-named read-outs stand apart in the source and are kept apart here.

Legend:
Assay in all cases: Anti-proliferative assay, cell-titre luminescent reagent, 72 h (GVK-BIO)
Assay type in all cases: cell-based
[1] = tested on: A549 non-small cell lung carcinoma cells; conditions: Homo sapiens, read-out: IC50/μM Lung (NSLC) A549
Procedure: (§1) The ability of compounds 4001, 4002, 4008, 4010, 4011, 4013-4015, 4018, 4026, 4045-4113 and 4115-4127 to inhibit the proliferation of cancer cells representative of neuroblastoma, melanoma, prostate cancer, colorectal cancer, non-small cell lung carcinoma, and triple negative breast cancer was assessed. These studies were conducted by contract research (GVK-BIO). Briefly, a pre-determined number of cells as calculated from cell growth assays for each of the cell lines employed were seeded into their respective culture medium (using ATCC culture parameters—http://www.atcc.org) and cultured for 24 h at 37° C. and 5% CO2 in 96-well culture plates. Once attached, each cell line was then exposed to various concentrations of each respective analogue (30, 3, 0.3 and 0.03 μM for compounds in Tables 2, 3 and 4; 30, 10, 3, 1, 0.3 and 0.1 μM for compounds in Table 5), cultured for a further 72 h and exposed to cell-titre luminescent reagent (100 μL/well) for a further 30 min). Luminescence was captured using an EnVision multilabel reader and the data for each analogue concentration compared against no treatment control. For compounds in Tables 2-4, semi-log plots of Percent of Control versus concentration were prepared and IC50 determined using linear regression analysis. For compounds in Table 5, cell viability was normalized to control (vehicle alone) and dose-response curves, and half maximal effective concentration (EC50) values were determined using Graph Pad Prism 6 (nonlinear regression sigmoidal dose-response variable slope).

[2] = tested on: CaCo2 colorectal cancer cells
Procedure: as §1

[3] = tested on: DU145 prostate cancer cells; conditions: Homo sapiens
Procedure: as §1

[4] = tested on: MDA-MB-231 triple negative breast cancer cells; conditions: Homo sapiens
Procedure: as §1

[5] = tested on: PC3 prostate cancer cells
Procedure: as §1

SK-Mel-28 melanoma cells = conditions: Homo sapiens
Procedure: as §1

[6] = tested on: SK-N-SH neuroblastoma cells; conditions: Homo sapiens
Procedure: as §1

[7] = A549, 72 h, 30, 3, 0.3 and 0.03 μM, linear regression (Tables 2-4)
[8] = Homo sapiens, Caco-2, 72 h, 30, 3, 0.3 and 0.03 μM, linear regression (Tables 2-4)
[9] = DU-145, 72 h, 30, 3, 0.3 and 0.03 μM, linear regression (Tables 2-4)
[10] = MDA-MB-231, 72 h, 30, 3, 0.3 and 0.03 μM, linear regression (Tables 2-4)
[11] = 30, 3, 0.3 and 0.03 μM, linear regression (Tables 2-4)
[12] = SK-MEL-28, 72 h, 30, 3, 0.3 and 0.03 μM, linear regression (Tables 2-4)
[13] = SK-N-SH, 30, 3, 0.3 and 0.03 μM, linear regression (Tables 2-4)
[14] = A549, 72 h, 30, 10, 3, 1, 0.3 and 0.1 μM, nonlinear regression (Table 5)
[15] = Homo sapiens, Caco-2, 72 h, 30, 10, 3, 1, 0.3 and 0.1 μM, nonlinear regression (Table 5)
[16] = DU-145, 72 h, 30, 10, 3, 1, 0.3 and 0.1 μM, nonlinear regression (Table 5)
[17] = MDA-MB-231, 72 h, 30, 10, 3, 1, 0.3 and 0.1 μM, nonlinear regression (Table 5)
[18] = 30, 10, 3, 1, 0.3 and 0.1 μM, nonlinear regression (Table 5)
[19] = SK-MEL-28, 72 h, 30, 10, 3, 1, 0.3 and 0.1 μM, nonlinear regression (Table 5)
[20] = SK-N-SH, 30, 10, 3, 1, 0.3 and 0.1 μM, nonlinear regression (Table 5)

IC50 [1, 7]	IC50 [2, 8]	IC50 [3, 9]	IC50 [4, 10]	IC50 [5, 11]	IC50 (SK-Mel-28 melanoma cells; [12])	IC50 [6, 13]	IC50 [1, 14]	IC50 [2, 15]	IC50 [3, 16]	IC50 [4, 17]	IC50 [5, 18]	IC50 (SK-Mel-28 melanoma cells; [19])	IC50 [6, 20]	IC50 [2, 11]	SMILES
3.9 µM	2.8 µM	4 µM	3.4 µM	4.2 µM	3.1 µM	2.6 µM	–	–	–	–	–	–	–	–	COc1ccc(NC(=O)c2cccc(Nc3ccc4c(c3)c(C)c(C)n4CCCN(C)C)c2)cc1 [Compound 4073, 3-((1-(3-(dimethylamino)propyl)-2,3-dimethyl-1H-indol-5-yl)amino)-N-(4-methoxyphenyl)benzamide]
2.5 µM	2.4 µM	2.8 µM	1.5 µM	22.7 µM	2.7 µM	1.3 µM	–	–	–	–	–	–	–	–	Cc1c(C)n(CCCN(C)C)c2ccc(Nc3cccc(C(=O)Nc4ccc5c(c4)OCO5)c3)cc12 [Compound 4074, N-(benzo[d][1,3]dioxol-5-yl)-3-((1-(3-(dimethylamino)propyl)-2,3-dimethyl-1H-indol-5-yl)amino)benzamide]
2.9 µM	3.3 µM	3 µM	2.6 µM	4.5 µM	2.7 µM	2.6 µM	–	–	–	–	–	–	–	–	Cc1c(C)n(CCCN(C)C)c2ccc(Nc3cccc(C(=O)Nc4cccc(F)c4)c3)cc12 [Compound 4075, 3-((1-(3-(dimethylamino)propyl)-2,3-dimethyl-1H-indol-5-yl)amino)-N-(3-fluorophenyl)benzamide]
1.8 µM	2.9 µM	3.2 µM	1.7 µM	3.7 µM	2.1 µM	2.8 µM	–	–	–	–	–	–	–	–	COc1cccc(NC(=O)c2cccc(Nc3ccc4c(c3)c(C)c(C)n4CCCN(C)C)c2)c1 [Compound 4076, 3-((1-(3-(dimethylamino)propyl)-2,3-dimethyl-1H-indol-5-yl)amino)-N-(3-methoxyphenyl)benzamide]
3.3 µM	3.3 µM	3.2 µM	3.4 µM	2.8 µM	2.7 µM	3.1 µM	–	–	–	–	–	–	–	–	CN(C)CCCn1ccc2cc(Cc3ccc(C(=O)Nc4ccc(F)cc4)cc3)ccc21 [Compound 4077, 4-((1-(3-(dimethylamino)propyl)-1H-indol-5-yl)methyl)-N-(4-fluorophenyl)benzamide]
1.4 µM	3.6 µM	1.4 µM	1.6 µM	1.2 µM	1.9 µM	6.5 µM	–	–	–	–	–	–	–	–	COc1ccc(NC(=O)c2ccc(Cc3ccc4c(ccn4CCCN(C)C)c3)cc2)cc1 [Compound 4078, 4-((1-(3-(dimethylamino)propyl)-1H-indol-5-yl)methyl)-N-(4-methoxyphenyl)benzamide]
3.1 µM	> 30 µM	3.1 µM	4.3 µM	1.8 µM	2.8 µM	2.9 µM	–	–	–	–	–	–	–	–	CN(C)CCCn1ccc2cc(Cc3ccc(C(=O)Nc4ccc5c(c4)OCO5)cc3)ccc21 [Compound 4079, N-(benzo[d][1, 3]dioxol-5-yl)-4-((1-(3-(dimethylamino)propyl)-1H-indol-5-yl)methyl)benzamide]
3.1 µM	3 µM	3.5 µM	3.2 µM	3 µM	3.1 µM	2.8 µM	–	–	–	–	–	–	–	–	CN(C)CCCn1ccc2cc(Cc3ccc(C(=O)Nc4cccc(F)c4)cc3)ccc21 [Compound 4080, 4-((1-(3-(dimethylamino)propyl)-1H-indol-5-yl)methyl)-N-(3-fluorophenyl)benzamide]
2.9 µM	3.1 µM	2.9 µM	2.5 µM	2.1 µM	2.3 µM	1.6 µM	–	–	–	–	–	–	–	–	COc1cccc(NC(=O)c2ccc(Cc3ccc4c(ccn4CCCN(C)C)c3)cc2)c1 [Compound 4081, 4-((1-(3-(dimethylamino)propyl)-1H-indol-5-yl)methyl)-N-(3-methoxyphenyl)benzamide]

Continued, molecule first:

SMILES	IC50 [1, 7]	IC50 [2, 8]	IC50 [3, 9]	IC50 [4, 10]	IC50 [5, 11]	IC50 (SK-Mel-28 melanoma cells; [12])	IC50 [6, 13]	IC50 [1, 14]	IC50 [2, 15]	IC50 [3, 16]	IC50 [4, 17]	IC50 [5, 18]	IC50 (SK-Mel-28 melanoma cells; [19])	IC50 [6, 20]	IC50 [2, 11]
Cc1c(C)n(CCCN(C)C)c2ccc(Oc3cccc(C(=O)Nc4ccc5c(c4)OCO5)c3)cc12 [Compound 4063, N-(benzo[d][1,3]dioxol-5-yl)-3-((1-(37(dimethylamino)propyl)-2,3-dimethyl-1H-indol-5-yl)oxy)benzamide]	3 µM	9.6 µM	3.6 µM	3.7 µM	4.9 µM	3.8 µM	4.2 µM	–	–	–	–	–	–	–	–
Cc1c(C)n(CCCN(C)C)c2ccc(Oc3cccc(C(=O)Nc4cccc(F)c4)c3)cc12 [Compound 4064]	3.5 µM	3.8 µM	3.4 µM	3.3 µM	2.6 µM	2.7 µM	2.4 µM	–	–	–	–	–	–	–	–
COc1cccc(NC(=O)c2cccc(Oc3ccc4c(c3)c(C)c(C)n4CCCN(C)C)c2)c1 [Compound 4065, 3-((1-(3-(dimethylamino)propyl)-2,3-dimethyl-1H-indol-5-yl)oxy)-N-(3-methoxyphenyl)benzamide]	–	–	–	–	–	–	–	4.6 µM	6.5 µM	4.2 µM	5 µM	6.5 µM	5 µM	5.2 µM	–
Cc1c(C)n(CCCN(C)C)c2ccc(Oc3cccc(C(=O)Nc4ccccc4)c3)cc12 [Compound 4066, 3-((1-(3-(dimethylamino)propyl)-2,3-dimethyl-1H-indol-5-yl)oxy)-N-phenylbenzamide]	–	–	–	–	–	–	–	8.5 µM	14.8 µM	6.9 µM	11.4 µM	10 µM	4.9 µM	5.4 µM	–
CN(C)CCCn1ccc2cc(Nc3cccc(C(=O)Nc4ccc(F)cc4)c3)ccc21 [Compound 4067, 3-((1-(3-(dimethylamino)propyl)-1H-indol-5-yl)amino)-N-(4-fluorophenyl)benzamide]	4 µM	–	4.3 µM	3.8 µM	4.3 µM	2.5 µM	3.3 µM	–	–	–	–	–	–	–	4.3 µM
COc1ccc(NC(=O)c2cccc(Nc3ccc4c(ccn4CCCN(C)C)c3)c2)cc1 [Compound 4068, 3-((1-(3-(dimethylamino)propyl)-1H-indol-5-yl)amino)-N-(4-methoxyphenyl)benzamide]	2.9 µM	> 30 µM	5.4 µM	2.8 µM	14.6 µM	2.7 µM	3.5 µM	–	–	–	–	–	–	–	–
CN(C)CCCn1ccc2cc(Nc3cccc(C(=O)Nc4ccc5c(c4)OCO5)c3)ccc21 [Compound 4069, N-(benzo[d][1,3]dioxol-5-yl)-3-((1-(3-(dimethylamino)propyl)-1H-indol-5-yl)amino)benzamide]	4.2 µM	> 30 µM	4.4 µM	4.2 µM	9.9 µM	2.5 µM	3.4 µM	–	–	–	–	–	–	–	–
CN(C)CCCn1ccc2cc(Nc3cccc(C(=O)Nc4cccc(F)c4)c3)ccc21 [Compound 4070, 3-((1-(3-(dimethylamino)propyl)-1H-indol-5-yl)amino)-N-(3-fluorophenyl)benzamide]	2.3 µM	1.7 µM	3.1 µM	1.7 µM	2.9 µM	2.5 µM	2.2 µM	–	–	–	–	–	–	–	–
COc1cccc(NC(=O)c2cccc(Nc3ccc4c(ccn4CCCN(C)C)c3)c2)c1 [Compound 4071]	4 µM	12 µM	4.7 µM	3.4 µM	7.6 µM	4.9 µM	3.7 µM	–	–	–	–	–	–	–	–
Cc1c(C)n(CCCN(C)C)c2ccc(Nc3cccc(C(=O)Nc4ccc(F)cc4)c3)cc12 [Compound 4072, 3-((1-(3-(dimethylamino)propyl)-2,3-dimethyl-1H-indol-5-yl)amino)-N-(4-fluorophenyl)benzamide]	1.9 µM	2 µM	2.9 µM	1.7 µM	3.8 µM	3 µM	1.7 µM	–	–	–	–	–	–	–	–
